The record followed here is patent US10660877B2 (BRISTOL-MYERS SQUIBB COMPANY, priority 2016, dated 2020).

Where two headings read alike, the source gives them in different places. Where only a bound is given, the exact number is not on record here.

The target of one assay is human TLR7 (Homo sapiens (Human), UniProt Q9NYK1). As to the kind of experiment: TLR7 inhibition reporter assay (HEK-Blue cells, SEAP reporter, gardiquimod stimulation). It counts as cell-based. For orientation: In a reporter assay the amount or activity of a reporter protein is the signal.
Sequence of human TLR7 (Q9NYK1 27-1049): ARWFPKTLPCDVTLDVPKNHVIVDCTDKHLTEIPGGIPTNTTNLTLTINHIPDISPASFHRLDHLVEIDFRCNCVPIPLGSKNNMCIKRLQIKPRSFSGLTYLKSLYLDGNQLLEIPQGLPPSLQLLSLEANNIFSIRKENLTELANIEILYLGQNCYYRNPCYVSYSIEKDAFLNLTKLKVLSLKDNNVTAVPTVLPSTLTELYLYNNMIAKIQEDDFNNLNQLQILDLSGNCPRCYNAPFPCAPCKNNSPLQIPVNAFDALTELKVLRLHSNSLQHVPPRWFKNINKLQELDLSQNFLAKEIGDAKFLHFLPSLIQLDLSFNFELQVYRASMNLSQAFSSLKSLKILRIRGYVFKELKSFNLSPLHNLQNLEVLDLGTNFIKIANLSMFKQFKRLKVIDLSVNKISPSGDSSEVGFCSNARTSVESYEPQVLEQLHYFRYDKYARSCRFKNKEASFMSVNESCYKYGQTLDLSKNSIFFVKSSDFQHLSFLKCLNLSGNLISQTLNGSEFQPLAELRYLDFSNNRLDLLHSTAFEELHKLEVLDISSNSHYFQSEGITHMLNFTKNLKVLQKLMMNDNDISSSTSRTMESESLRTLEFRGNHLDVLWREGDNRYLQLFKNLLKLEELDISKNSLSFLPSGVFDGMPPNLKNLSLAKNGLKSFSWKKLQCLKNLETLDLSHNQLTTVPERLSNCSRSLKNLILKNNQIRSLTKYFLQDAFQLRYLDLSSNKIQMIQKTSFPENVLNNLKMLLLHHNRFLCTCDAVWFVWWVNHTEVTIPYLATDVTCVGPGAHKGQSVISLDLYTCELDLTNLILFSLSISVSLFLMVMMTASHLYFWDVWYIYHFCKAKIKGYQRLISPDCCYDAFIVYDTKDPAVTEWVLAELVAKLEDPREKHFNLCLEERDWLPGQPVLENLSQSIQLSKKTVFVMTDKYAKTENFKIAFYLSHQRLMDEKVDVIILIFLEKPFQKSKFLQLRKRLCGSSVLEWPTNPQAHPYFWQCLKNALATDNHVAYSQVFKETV
A further assay concerns the target human TLR8 (Homo sapiens (Human), UniProt Q9NR97). As to the kind of experiment: TLR8 inhibition reporter assay (HEK-Blue cells, SEAP reporter, R848 stimulation).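 Further: compounds tested from 0.05 nM to 50 µM, 22 h at 37 °C, SEAP measured with HEK-Blue Detection, inhibition relative to agonist plus DMSO versus a known inhibitor.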
The next assay concerns the target human TLR9 (Homo sapiens (Human), UniProt Q9NR96). The assay is described as follows: TLR9 inhibition reporter assay (HEK-Blue cells, SEAP reporter, ODN2006 stimulation).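 Further: compounds tested over 0.05 nM to 50 µM, 22 h incubation, inhibition taken as SEAP signal drop from agonist plus DMSO wells toward a known inhibitor control.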
Setting [1] is: HEK-Blue cells overexpressing human TLR7, gardiquimod 7.5 μM.
[2] abbreviates: read-out: TLR8 IC50, HEK-Blue cells overexpressing human TLR8, R848 15.9 μM.
The mark [3] stands for this setting: read-out: TLR9 IC50, HEK-Blue cells overexpressing human TLR9, ODN2006 5 nM.
The mark [4] stands for this setting: HEK-Blue cells, gardiquimod 7.5 μM.
[5] abbreviates: read-out: TLR8 IC50, HEK-Blue cells, R848 15.9 μM.
Setting [6] is: read-out: TLR9 IC50, HEK-Blue cells, ODN2006 5 nM.

Sequence of human TLR8 (Q9NR97 27-1041): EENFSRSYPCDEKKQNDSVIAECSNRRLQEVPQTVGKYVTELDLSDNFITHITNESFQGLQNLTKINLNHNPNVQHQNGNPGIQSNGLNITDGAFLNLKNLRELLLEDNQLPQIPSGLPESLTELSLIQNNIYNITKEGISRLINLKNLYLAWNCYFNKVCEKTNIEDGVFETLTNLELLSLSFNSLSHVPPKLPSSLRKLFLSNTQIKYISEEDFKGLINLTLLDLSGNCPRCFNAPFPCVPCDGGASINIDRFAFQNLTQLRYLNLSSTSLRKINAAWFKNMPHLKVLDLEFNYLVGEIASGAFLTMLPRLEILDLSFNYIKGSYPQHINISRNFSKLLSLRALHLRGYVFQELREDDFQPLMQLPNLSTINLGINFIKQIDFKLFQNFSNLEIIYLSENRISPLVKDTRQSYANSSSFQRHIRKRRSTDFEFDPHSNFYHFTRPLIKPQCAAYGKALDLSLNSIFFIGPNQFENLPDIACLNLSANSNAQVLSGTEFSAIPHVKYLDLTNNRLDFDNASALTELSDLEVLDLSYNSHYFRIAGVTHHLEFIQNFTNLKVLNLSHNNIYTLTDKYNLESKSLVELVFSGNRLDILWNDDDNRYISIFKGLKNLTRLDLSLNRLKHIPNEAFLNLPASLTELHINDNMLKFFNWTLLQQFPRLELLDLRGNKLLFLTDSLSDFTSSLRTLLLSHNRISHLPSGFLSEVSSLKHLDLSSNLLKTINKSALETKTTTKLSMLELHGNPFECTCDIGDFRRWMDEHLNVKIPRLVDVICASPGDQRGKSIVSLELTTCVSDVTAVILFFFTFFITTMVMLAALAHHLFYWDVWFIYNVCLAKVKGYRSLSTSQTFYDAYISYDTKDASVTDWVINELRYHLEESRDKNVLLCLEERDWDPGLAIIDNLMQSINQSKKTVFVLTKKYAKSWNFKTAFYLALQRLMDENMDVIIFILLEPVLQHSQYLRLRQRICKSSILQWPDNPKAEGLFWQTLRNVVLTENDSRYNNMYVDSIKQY
Sequence of human TLR9 (Q9NR96 26-1032): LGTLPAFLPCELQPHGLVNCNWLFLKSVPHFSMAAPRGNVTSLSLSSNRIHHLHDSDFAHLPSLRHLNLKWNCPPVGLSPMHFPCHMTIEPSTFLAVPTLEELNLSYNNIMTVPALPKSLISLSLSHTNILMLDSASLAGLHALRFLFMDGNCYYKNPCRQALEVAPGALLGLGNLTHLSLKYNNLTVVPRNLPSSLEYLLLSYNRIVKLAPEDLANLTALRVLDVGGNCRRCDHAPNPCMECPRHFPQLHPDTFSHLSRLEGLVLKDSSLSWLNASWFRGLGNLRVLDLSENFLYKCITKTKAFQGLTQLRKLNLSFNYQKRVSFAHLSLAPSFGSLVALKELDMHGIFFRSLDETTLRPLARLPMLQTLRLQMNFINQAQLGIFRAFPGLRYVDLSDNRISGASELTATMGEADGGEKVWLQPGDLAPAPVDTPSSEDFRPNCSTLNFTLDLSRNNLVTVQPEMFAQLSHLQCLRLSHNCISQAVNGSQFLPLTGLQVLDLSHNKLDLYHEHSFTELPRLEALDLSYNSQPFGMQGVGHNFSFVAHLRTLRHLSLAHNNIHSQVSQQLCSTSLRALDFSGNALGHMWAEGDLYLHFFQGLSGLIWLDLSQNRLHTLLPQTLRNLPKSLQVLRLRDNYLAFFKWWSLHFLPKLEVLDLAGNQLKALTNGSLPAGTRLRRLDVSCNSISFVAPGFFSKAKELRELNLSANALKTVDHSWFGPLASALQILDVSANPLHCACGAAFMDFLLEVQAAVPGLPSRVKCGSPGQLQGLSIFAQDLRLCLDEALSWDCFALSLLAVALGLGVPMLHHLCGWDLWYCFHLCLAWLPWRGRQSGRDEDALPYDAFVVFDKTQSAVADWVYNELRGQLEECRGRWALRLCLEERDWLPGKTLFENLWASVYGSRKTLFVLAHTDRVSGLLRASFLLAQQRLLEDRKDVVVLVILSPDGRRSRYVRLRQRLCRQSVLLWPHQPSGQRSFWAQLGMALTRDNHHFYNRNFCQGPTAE

As for `Cc1cc(-c2[nH]c3ccc(C4CCN(CC(=O)N5CCC(O)CC5)CC4)cc3c2C(C)C)cc(C)n1` [Example 230, 2-(4-(2-(2,6-dimethylpyridin-4-yl)-3-isopropyl-1H-indol-5-yl)piperidin-1-yl)-1-(4-hydroxypiperidin-1-yl)ethan-1-one], the IC50 (commonly the concentration needed to halve the response being measured) is 4 nM at human TLR7 (setting [1]), 17 nM on human TLR8 (setting [2]) and 74 nM on human TLR9 (setting [3]).

For the compound `Cc1cc(-c2[nH]c3ccc(C4CCN(CC(F)(F)F)CC4)cc3c2C(C)C)ccn1` [Example 658, 3-isopropyl-2-(2-methylpyridin-4-yl)-5-(1-(2,2,2-trifluoroethyl)piperidin-4-yl)-1H-indole], the IC50 against human TLR7 (setting [1]) amounted to 434 nM; at human TLR8 (setting [2]) it was 645 nM; at human TLR9 (setting [3]), 7290 nM.

On to `Cc1cc(-c2[nH]c3ccc(C4CCN(CC(=O)N5CCC(F)(F)CC5)CC4)cc3c2C(C)C)cc(C)n1` [Example 257, 1-(4,4-difluoropiperidin-1-yl)-2-(4-(2-(2,6-dimethylpyridin-4-yl)-3-isopropyl-1H-indol-5-yl)piperidin-1-yl)ethan-1-one], for which the IC50 against human TLR7 (setting [1]) worked out at 9.8 nM; at human TLR8 (setting [2]), 13.8 nM; at human TLR9 (setting [3]) it was 607 nM.

`Cc1cc(-c2[nH]c3ccc(C4CCN(C(=O)CN(CCO)C(C)C)CC4)cc3c2C(C)C)cc(C)n1` [Example 415, 1-(4-(2-(2,6-dimethylpyridin-4-yl)-3-isopropyl-1H-indol-5-yl)piperidin-1-yl)-2-((2-hydroxyethyl)(isopropyl)amino)ethan-1-one]: the IC50 was found to be 7.9 nM on human TLR7 (setting [1]), 39.7 nM at human TLR8 (setting [2]) and 1860 nM on human TLR9 (setting [3]).

With `Cc1cc(-c2[nH]c3ccc(C4CCN(CC(C)(C)C)CC4)cc3c2C(C)C)cc(C)n1` [Example 470, 2-(2,6-dimethylpyridin-4-yl)-3-isopropyl-5-(1-neopentylpiperidin-4-yl)-1H-indole], the concentration for half-maximal inhibition (IC50) on human TLR7 (setting [1]) stood at 5.9 nM; at human TLR8 (setting [2]), 23.8 nM; at human TLR9 (setting [3]) it was 532 nM.

Regarding `Cc1cc(-c2[nH]c3ccc(C4CCN(C(C)CF)CC4)cc3c2C(C)C)c(C)cn1` (stereo not drawn) [Example 870, 2-(2,5-dimethylpyridin-4-yl)-5-(1-(1-fluoropropan-2-yl)piperidin-4-yl)-3-isopropyl-1H-indole], the IC50 came out at 19.7 nM against human TLR7 (setting [4]), 4.1 nM at human TLR8 (setting [5]) and 1440 nM at human TLR9 (setting [6]).

On to `Cc1cc(-c2[nH]c3ccc(C4CCN(C(=O)CN5CCCCC5)CC4)cc3c2C(C)C)cc(C)n1` [Example 351, 1-(4-(2-(2,6-dimethylpyridin-4-yl)-3-isopropyl-1H-indol-5-yl)piperidin-1-yl)-2-(piperidin-1-yl)ethan-1-one], for which the IC50 at human TLR7 (setting [1]) was determined as 3.1 nM; at human TLR8 (setting [2]), 7.3 nM; at human TLR9 (setting [3]) it was 559 nM.

As to `Cc1cc(-c2[nH]c3ccc(C4CCN(C(C)CF)CC4)cc3c2C(C)C)cc(C)n1` (stereo not drawn) [Example 472, 2-(2,6-dimethylpyridin-4-yl)-5-(1-(1-fluoropropan-2-yl)piperidin-4-yl)-3-isopropyl-1H-indole], the IC50 stood at 7.5 nM against human TLR7 (setting [1]), 13.2 nM on human TLR8 (setting [2]) and 601 nM at human TLR9 (setting [3]).

As for `Cc1cc(-c2[nH]c3ccc(C4CCN(C(=O)CC5CC(=O)NC(=O)N5)CC4)cc3c2C(C)C)cc(C)n1` (stereo not drawn) [Example 129, 6-(2-(4-(2-(2,6-dimethylpyridin-4-yl)-3-isopropyl-1H-indol-5-yl)piperidin-1-yl)-2-oxoethyl)dihydropyrimidine-2,4(1H,3H)-dione], the IC50 on human TLR7 (setting [1]) is 18.1 nM; on human TLR8 (setting [2]) it was 69.8 nM; on human TLR9 (setting [3]), 32300 nM.

For `Cc1cc(-c2[nH]c3ccc(C4CCN(Cc5c[nH]nc5C)CC4)cc3c2C(C)C)cc(C)n1` [Example 439, 2-(2,6-dimethylpyridin-4-yl)-3-isopropyl-5-(1-((3-methyl-1H-pyrazol-4-yl)methyl)piperidin-4-yl)-1H-indole], the IC50 turned out to be 7.7 nM against human TLR7 (setting [1]), 6.3 nM on human TLR8 (setting [2]) and 202 nM on human TLR9 (setting [3]).

Consider `Cc1cc(-c2[nH]c3ccc(C4CCN(C(=O)Cn5ccc(C(F)(F)F)n5)CC4)cc3c2C(C)C)cc(C)n1` [Example 156, 1-(4-(2-(2,6-dimethylpyridin-4-yl)-3-isopropyl-1H-indol-5-yl)piperidin-1-yl)-2-(3-(trifluoromethyl)-1H-pyrazol-1-yl)ethan-1-one], for which the results for the IC50 on human TLR7 (setting [1]), at human TLR8 (setting [2]) and on human TLR9 (setting [3]) were 29.9 nM, 187 nM and 18600 nM, respectively.

For `Cc1nccc(-c2[nH]c3ccc(C4CCN(C5CCN(C(C)C)CC5)CC4)cc3c2C)c1C` [Example 812, 2-(2,3-dimethylpyridin-4-yl)-5-(1′-isopropyl-[1,4′-bipiperidin]-4-yl)-3-methyl-1H-indole], the IC50 on human TLR7 (setting [4]) was found to be 404 nM; on human TLR8 (setting [5]), 44.5 nM; on human TLR9 (setting [6]), 35 nM.

In the case of `Cc1cc(-c2[nH]c3ccc(C4CCN(CC(=O)N(C(C)C)C(C)C)CC4)cc3c2C(C)C)cc(C)n1` [Example 253, 2-(4-(2-(2,6-dimethylpyridin-4-yl)-3-isopropyl-1H-indol-5-yl)piperidin-1-yl)-N,N-diisopropylacetamide], the 50% inhibitory concentration (IC50) at human TLR7 (setting [1]) turned out to be 19.7 nM; on human TLR8 (setting [2]), 37.1 nM; at human TLR9 (setting [3]), 1340 nM.

As to `Cc1cc(-c2[nH]c3ccc(C4CCN(Cc5ncccn5)CC4)cc3c2C(C)C)cc(C)n1` [Example 460, 2-(2,6-dimethylpyridin-4-yl)-3-isopropyl-5-(1-(pyrimidin-2-ylmethyl)piperidin-4-yl)-1H-indole], the IC50 was 6.2 nM against human TLR7 (setting [1]), 5.8 nM on human TLR8 (setting [2]) and 396 nM on human TLR9 (setting [3]).

In the case of `Cc1cc(-c2[nH]c3ccc(C4CCN(C(=O)c5ccc6ccccn6c5=O)CC4)cc3c2C(C)C)cc(C)n1` [Example 145, 3-(4-(2-(2,6-dimethylpyridin-4-yl)-3-isopropyl-1H-indol-5-yl)piperidine-1-carbonyl)-4H-quinolizin-4-one], the concentration for half-maximal inhibition (IC50) on human TLR7 (setting [1]) is 28.7 nM; at human TLR8 (setting [2]), 347 nM; on human TLR9 (setting [3]), over 50000 nM.

As to `Cc1cc(-c2[nH]c3ccc(C4CCN(C(=O)c5ccc6n(c5=O)CCC6)CC4)cc3c2C(C)C)cc(C)n1` [Example 144, 6-(4-(2-(2,6-dimethylpyridin-4-yl)-3-isopropyl-1H-indol-5-yl)piperidine-1-carbonyl)-2,3-dihydroindolizin-5(1H)-one], the IC50 is 20 nM against human TLR7 (setting [1]), 170 nM at human TLR8 (setting [2]) and over 50000 nM on human TLR9 (setting [3]).

With `Cc1cc(-c2[nH]c3ccc(C4CCN(Cc5cnc[nH]5)CC4)cc3c2C(C)C)c(N)cn1` [Example 823, 4-(5-(1-((1H-imidazol-5-yl)methyl)piperidin-4-yl)-3-isopropyl-1H-indol-2-yl)-6-methylpyridin-3-amine], the figures for the IC50 at human TLR7 (setting [4]), on human TLR8 (setting [5]) and on human TLR9 (setting [6]) were 36.2 nM, 7.6 nM and 400 nM, respectively.

As for `CNC(=O)C(=O)N1CCC(c2ccc3[nH]c(-c4cc(C)nc(C)c4)c(C(C)C)c3c2)CC1` [Example 205, 2-(4-(2-(2,6-dimethylpyridin-4-yl)-3-isopropyl-1H-indol-5-yl)piperidin-1-yl)-N-methyl-2-oxoacetamide], the IC50 was found to be 4.4 nM against human TLR7 (setting [1]), 76.3 nM at human TLR8 (setting [2]) and 19200 nM at human TLR9 (setting [3]).

As to `Cc1cc(-c2[nH]c3ccc(C4CCN(C(=O)C5CCNC5)CC4)cc3c2C(C)C)cc(C)n1` (single isomer, unassigned) [Example 181, (4-(2-(2,6-dimethylpyridin-4-yl)-3-isopropyl-1H-indol-5-yl)piperidin-1-yl)(pyrrolidin-3-yl) methanone], the IC50 stood at 2.6 nM against human TLR7 (setting [1]); 21.5 nM against human TLR8 (TLR8 IC50, HEK-Blue cells overexpressing human TLR8, R848 15.9 μM); 537 nM against human TLR9 (TLR9 IC50, HEK-Blue cells overexpressing human TLR9, ODN2006 5 nM).

`COC[C@@H]1CCCN1CC(=O)N1CCC(c2ccc3[nH]c(-c4cc(C)nc(C)c4)c(C(C)C)c3c2)CC1` [Example 370, (S)-1-(4-(2-(2,6-dimethylpyridin-4-yl)-3-isopropyl-1H-indol-5-yl)piperidin-1-yl)-2-(2-(methoxymethyl)pyrrolidin-1-yl)ethan-1-one]: the IC50 against human TLR7 (setting [1]) stood at 4.7 nM; on human TLR8 (setting [2]), 28.8 nM; at human TLR9 (setting [3]) it was 889 nM.

As to `CCc1c(-c2ccnc(N)c2)[nH]c2ccc(C3CCN(C4CCN(CC(C)C)CC4)CC3)cc12` [Example 773, 4-(3-ethyl-5-(1′-isobutyl-[1,4′-bipiperidin]-4-yl)-1H-indol-2-yl)pyridin-2-amine], the IC50 at human TLR7 (setting [1]) came out at 613 nM; at human TLR8 (setting [2]) it was 114 nM; at human TLR9 (setting [3]), 45 nM.

Take `Cc1cc(-c2[nH]c3ccc(C4CCN(C5COC5)CC4)cc3c2C(C)C)c(F)cn1` [Example 721, 2-(5-fluoro-2-methylpyridin-4-yl)-3-isopropyl-5-(1-(oxetan-3-yl)piperidin-4-yl)-1H-indole]: the IC50 at human TLR7 (setting [1]) was 13.8 nM; at human TLR8 (setting [2]) it was 7.4 nM; on human TLR9 (setting [3]) it was 19800 nM.

Take `Cc1cc(-c2[nH]c3ccc(C4CCN(C5COC5)CC4)cc3c2C(C)C)cc(C)n1` [Example 452, 2-(2,6-dimethylpyridin-4-yl)-3-isopropyl-5-(1-(oxetan-3-yl)piperidin-4-yl)-1H-indole]: the values for the IC50 against human TLR7 (setting [1]), at human TLR8 (setting [2]) and at human TLR9 (setting [3]) were 4.9 nM, 16.7 nM and 1390 nM, respectively.

As to `Cc1cc(-c2[nH]c3ccc(C4CCN(C(=O)CS(C)(=O)=O)CC4)cc3c2C(C)C)ccn1` [Example 608, 1-(4-(3-isopropyl-2-(2-methylpyridin-4-yl)-1H-indol-5-yl)piperidin-1-yl)-2-(methylsulfonyl)ethan-1-one], the IC50 at human TLR7 (setting [1]) amounted to 51.4 nM; at human TLR8 (setting [2]), 184 nM; on human TLR9 (setting [3]), 1850 nM.
